In the kinase profiling compilation of Christmann-Franck et al. (2016):

Experiments:
Assay in all cases: KINOMEscan competition binding
Conditions in all cases: compound 10.0 µM
ALK (human) = ALK (human) (UniProt Q9UM73)
BMPR2 (human) = BMPR2 (human) (UniProt Q13873)
CDC42BPB (human) = CDC42BPB (human) (UniProt Q9Y5S2)
CDK4 CCND1 (human) = CDK4 CCND1 (human) (UniProt P11802+P24385)
CHEK2 (human) = CHEK2 (human) (UniProt O96017)
CRK2 (P.falciparum) = CRK2 (P.falciparum) (UniProt P61075)
DCLK3 (human) = DCLK3 (human) (UniProt Q9C098)
EPHA3 (human) = EPHA3 (human) (UniProt P29320)
ERBB3 (human) = ERBB3 (human) (UniProt P21860)
ERBB4 (human) = ERBB4 (human) (UniProt Q15303)
ERN1 (human) = ERN1 (human) (UniProt O75460)
FGFR4 (human) = FGFR4 (human) (UniProt P22455)
FLT3 (human) = FLT3 (human) (UniProt P36888)
GRK4 (human) = GRK4 (human) (UniProt P32298)
[1] = target: JAK1 JH2 pseudokinase (human) (UniProt P23458)
LYN (human) = LYN (human) (UniProt P07948)
MAP3K10 (human) = MAP3K10 (human) (UniProt Q02779)
MAP4K3 (human) = MAP4K3 (human) (UniProt Q8IVH8)
MAPK1 (human) = MAPK1 (human) (UniProt P28482)
MAPK6 (human) = MAPK6 (human) (UniProt Q16659)
MELK (human) = MELK (human) (UniProt Q14680)
MLTK (human) = MLTK (human) (UniProt Q9NYL2)
MYLK (human) = MYLK (human) (UniProt Q15746)
PAK3 (human) = PAK3 (human) (UniProt O75914)
[2] = test system: PIK3CA (human), P42336 [E542K]
[3] = test system: PIK3CA (human), P42336 [H1047L]
PLK2 (human) = PLK2 (human) (UniProt Q9NYY3)
PRKD3 (human) = PRKD3 (human) (UniProt O94806)
PTK2B (human) = PTK2B (human) (UniProt Q14289)
RIPK1 (human) = RIPK1 (human) (UniProt Q13546)
RPS6KA3 KD1 (human) = RPS6KA3 KD1 (human) (UniProt P51812)
RPS6KA4 KD1 (human) = RPS6KA4 KD1 (human) (UniProt O75676)
RPS6KA6 KD2 (human) = RPS6KA6 KD2 (human) (UniProt Q9UK32)
SBK1 (human) = SBK1 (human) (UniProt Q52WX2)
STK17B (human) = STK17B (human) (UniProt O94768)
STK35 (human) = STK35 (human) (UniProt Q8TDR2)
STK38 (human) = STK38 (human) (UniProt Q15208)
TLK2 (human) = TLK2 (human) (UniProt Q86UE8)
[4] = target: TYK2 JH1 catalytic (human) (UniProt P29597)
CLK1 (human) = CLK1 (human) (UniProt P49759)

Chain of RPS6KA6 KD2 (human) (Q9UK32 whole entry, looked up): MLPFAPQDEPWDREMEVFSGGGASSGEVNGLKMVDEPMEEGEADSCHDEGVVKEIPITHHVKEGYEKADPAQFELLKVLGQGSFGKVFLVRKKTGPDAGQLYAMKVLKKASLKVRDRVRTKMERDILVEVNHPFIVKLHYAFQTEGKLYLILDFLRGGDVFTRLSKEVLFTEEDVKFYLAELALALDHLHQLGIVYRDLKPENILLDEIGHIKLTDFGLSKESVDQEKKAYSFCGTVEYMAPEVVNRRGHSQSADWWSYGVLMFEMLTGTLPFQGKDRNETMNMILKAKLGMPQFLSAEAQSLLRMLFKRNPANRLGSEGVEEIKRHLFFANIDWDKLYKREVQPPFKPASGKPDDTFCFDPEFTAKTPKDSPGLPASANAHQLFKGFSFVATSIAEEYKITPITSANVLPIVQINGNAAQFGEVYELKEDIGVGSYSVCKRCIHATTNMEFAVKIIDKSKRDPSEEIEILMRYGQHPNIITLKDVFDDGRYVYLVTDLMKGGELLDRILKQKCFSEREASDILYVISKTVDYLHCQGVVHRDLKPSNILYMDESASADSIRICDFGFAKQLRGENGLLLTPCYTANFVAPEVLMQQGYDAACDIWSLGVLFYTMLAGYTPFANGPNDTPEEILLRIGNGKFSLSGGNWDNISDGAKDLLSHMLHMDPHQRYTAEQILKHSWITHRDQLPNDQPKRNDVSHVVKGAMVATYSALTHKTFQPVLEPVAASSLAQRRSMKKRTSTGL
Chain of MLTK (human) (Q9NYL2 whole entry, looked up): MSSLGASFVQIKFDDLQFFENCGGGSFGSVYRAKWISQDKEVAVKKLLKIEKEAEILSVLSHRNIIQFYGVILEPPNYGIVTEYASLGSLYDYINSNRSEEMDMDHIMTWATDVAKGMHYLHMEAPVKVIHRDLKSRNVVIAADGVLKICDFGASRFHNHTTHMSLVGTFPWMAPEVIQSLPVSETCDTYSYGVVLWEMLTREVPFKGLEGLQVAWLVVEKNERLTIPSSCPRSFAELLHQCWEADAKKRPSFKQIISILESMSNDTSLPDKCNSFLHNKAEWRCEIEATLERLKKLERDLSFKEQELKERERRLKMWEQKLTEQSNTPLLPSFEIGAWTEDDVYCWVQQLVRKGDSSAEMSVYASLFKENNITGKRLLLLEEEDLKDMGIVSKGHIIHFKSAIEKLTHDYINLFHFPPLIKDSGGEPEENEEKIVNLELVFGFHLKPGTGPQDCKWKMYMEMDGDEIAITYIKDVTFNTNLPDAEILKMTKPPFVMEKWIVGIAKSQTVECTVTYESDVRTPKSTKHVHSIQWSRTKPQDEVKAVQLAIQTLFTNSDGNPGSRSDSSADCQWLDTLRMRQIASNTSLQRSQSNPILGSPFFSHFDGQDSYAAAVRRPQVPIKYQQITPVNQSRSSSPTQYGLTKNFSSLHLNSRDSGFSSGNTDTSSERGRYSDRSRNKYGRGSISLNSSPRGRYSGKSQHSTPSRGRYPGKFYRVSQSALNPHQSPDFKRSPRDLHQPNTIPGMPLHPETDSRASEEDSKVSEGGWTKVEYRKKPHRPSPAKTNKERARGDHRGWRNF
Chain of PTK2B (human) (Q14289 whole entry, looked up): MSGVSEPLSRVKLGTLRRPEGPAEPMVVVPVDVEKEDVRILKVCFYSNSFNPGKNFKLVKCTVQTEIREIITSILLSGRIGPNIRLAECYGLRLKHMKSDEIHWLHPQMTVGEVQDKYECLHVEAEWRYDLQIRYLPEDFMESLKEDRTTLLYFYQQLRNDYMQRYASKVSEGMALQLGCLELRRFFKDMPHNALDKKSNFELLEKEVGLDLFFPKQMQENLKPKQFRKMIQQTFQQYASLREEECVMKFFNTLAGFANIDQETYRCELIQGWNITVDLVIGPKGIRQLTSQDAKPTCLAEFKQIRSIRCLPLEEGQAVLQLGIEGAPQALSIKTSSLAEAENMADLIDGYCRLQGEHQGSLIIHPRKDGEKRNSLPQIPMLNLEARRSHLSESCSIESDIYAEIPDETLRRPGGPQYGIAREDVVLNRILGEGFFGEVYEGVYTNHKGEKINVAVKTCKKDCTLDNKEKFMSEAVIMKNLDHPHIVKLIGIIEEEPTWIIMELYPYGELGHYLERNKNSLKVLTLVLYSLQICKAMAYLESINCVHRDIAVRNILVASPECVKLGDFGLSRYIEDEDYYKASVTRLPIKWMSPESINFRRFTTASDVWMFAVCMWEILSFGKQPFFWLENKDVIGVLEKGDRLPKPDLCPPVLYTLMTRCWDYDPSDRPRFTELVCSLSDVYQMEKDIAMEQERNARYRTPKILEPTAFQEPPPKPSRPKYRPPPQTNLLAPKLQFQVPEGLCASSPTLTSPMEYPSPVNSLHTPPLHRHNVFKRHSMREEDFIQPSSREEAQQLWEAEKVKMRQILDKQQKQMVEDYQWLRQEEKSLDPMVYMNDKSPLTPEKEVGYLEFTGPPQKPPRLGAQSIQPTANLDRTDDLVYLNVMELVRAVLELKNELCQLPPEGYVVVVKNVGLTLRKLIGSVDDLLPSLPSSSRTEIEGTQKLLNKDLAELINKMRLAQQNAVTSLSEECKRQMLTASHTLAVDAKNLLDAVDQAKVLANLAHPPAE
Chain of PIK3CA (human), P42336 [E542K] (P42336 whole entry E542K, looked up): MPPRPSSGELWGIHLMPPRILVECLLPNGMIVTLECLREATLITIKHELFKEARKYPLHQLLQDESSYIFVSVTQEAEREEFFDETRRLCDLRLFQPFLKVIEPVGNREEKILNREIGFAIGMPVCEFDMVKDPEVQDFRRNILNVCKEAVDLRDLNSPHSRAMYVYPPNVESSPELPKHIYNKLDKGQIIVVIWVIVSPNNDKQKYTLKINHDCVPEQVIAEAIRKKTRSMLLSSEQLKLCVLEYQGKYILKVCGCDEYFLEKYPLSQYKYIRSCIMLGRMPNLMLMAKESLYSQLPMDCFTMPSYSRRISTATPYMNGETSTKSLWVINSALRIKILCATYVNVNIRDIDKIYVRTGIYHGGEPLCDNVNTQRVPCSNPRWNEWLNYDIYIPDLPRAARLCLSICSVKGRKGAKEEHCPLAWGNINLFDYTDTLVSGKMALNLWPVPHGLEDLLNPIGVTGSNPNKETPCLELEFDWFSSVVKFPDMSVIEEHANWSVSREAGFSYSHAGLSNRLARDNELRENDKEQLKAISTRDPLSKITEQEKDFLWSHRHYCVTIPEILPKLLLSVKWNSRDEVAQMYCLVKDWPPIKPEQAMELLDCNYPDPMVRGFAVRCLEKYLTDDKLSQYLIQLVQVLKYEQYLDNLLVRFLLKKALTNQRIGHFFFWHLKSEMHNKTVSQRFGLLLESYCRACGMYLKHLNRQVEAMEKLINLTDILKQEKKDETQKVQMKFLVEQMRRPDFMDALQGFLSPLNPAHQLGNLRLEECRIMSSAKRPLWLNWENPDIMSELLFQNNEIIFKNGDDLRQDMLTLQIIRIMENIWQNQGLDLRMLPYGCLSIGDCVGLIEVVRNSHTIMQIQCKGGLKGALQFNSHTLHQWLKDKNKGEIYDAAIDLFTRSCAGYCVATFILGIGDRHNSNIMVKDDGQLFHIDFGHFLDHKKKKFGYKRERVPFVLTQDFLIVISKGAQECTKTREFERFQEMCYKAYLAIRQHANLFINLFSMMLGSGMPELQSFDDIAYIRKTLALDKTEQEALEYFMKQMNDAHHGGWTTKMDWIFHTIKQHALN
Chain of BMPR2 (human) (Q13873 whole entry, looked up): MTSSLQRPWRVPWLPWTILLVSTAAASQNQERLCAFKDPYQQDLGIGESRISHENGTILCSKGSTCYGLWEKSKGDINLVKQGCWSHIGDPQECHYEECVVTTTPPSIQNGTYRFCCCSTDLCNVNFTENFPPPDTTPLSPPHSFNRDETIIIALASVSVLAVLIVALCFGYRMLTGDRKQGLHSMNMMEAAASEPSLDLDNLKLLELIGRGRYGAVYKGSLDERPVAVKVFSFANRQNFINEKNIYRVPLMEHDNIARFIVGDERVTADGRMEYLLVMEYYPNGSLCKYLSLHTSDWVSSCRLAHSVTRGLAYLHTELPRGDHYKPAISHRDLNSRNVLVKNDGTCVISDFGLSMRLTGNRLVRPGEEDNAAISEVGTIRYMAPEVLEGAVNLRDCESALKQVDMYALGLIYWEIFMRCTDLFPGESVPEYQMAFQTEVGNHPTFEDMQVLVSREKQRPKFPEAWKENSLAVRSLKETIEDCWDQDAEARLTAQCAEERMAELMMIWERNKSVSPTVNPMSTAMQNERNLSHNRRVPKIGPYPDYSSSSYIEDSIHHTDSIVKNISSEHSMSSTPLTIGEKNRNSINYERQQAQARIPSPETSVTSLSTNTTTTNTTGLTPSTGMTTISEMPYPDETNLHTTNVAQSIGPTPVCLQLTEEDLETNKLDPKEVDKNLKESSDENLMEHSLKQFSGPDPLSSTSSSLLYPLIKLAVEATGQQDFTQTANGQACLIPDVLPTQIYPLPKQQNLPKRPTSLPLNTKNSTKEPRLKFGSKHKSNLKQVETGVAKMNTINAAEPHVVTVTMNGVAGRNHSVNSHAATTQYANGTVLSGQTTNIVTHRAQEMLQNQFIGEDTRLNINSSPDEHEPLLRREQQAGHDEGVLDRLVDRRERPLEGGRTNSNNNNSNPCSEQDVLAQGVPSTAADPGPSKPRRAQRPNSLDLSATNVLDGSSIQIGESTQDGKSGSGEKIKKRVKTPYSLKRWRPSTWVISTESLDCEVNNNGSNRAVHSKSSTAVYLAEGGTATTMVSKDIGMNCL
Chain of SBK1 (human) (Q52WX2 whole entry, looked up): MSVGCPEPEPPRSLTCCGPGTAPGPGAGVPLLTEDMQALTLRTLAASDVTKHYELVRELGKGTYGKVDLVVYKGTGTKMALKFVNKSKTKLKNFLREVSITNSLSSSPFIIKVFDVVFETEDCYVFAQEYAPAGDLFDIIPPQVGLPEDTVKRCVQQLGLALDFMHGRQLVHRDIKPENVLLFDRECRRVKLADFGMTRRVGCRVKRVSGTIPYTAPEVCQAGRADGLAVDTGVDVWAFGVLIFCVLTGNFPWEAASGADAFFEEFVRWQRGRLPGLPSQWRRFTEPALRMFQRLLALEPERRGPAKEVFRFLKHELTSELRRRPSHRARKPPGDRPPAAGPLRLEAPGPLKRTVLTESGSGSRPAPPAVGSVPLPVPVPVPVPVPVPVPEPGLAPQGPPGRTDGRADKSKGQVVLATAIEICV

CCCS(=O)(=O)Nc1ccc(F)c(C(=O)c2c[nH]c3ncc(Cl)cc23)c1F
kinase still bound, per cent of control (ALK (human)): 14% | kinase still bound, per cent of control (BMPR2 (human)): 67% | kinase still bound, per cent of control (CDC42BPB (human)): 100% | kinase still bound, per cent of control (CDK4 CCND1 (human)): 64% | kinase still bound, per cent of control (CHEK2 (human)): 64% | kinase still bound, per cent of control (CRK2 (P.falciparum)): 91% | kinase still bound, per cent of control (DCLK3 (human)): 26% | kinase still bound, per cent of control (EPHA3 (human)): 65% | kinase still bound, per cent of control (ERBB3 (human)): 28% | kinase still bound, per cent of control (ERBB4 (human)): 73% | kinase still bound, per cent of control (ERN1 (human)): 78% | kinase still bound, per cent of control (FGFR4 (human)): 100% | kinase still bound, per cent of control (FLT3 (human)): 14% | kinase still bound, per cent of control (GRK4 (human)): 100% | kinase still bound, per cent of control [1]: 100% | kinase still bound, per cent of control (LYN (human)): 24% | kinase still bound, per cent of control (MAP3K10 (human)): 87% | kinase still bound, per cent of control (MAP4K3 (human)): 91% | kinase still bound, per cent of control (MAPK1 (human)): 100% | kinase still bound, per cent of control (MAPK6 (human)): 100% | kinase still bound, per cent of control (MELK (human)): 76% | kinase still bound, per cent of control (MLTK (human)): 6% | kinase still bound, per cent of control (MYLK (human)): 79% | kinase still bound, per cent of control (PAK3 (human)): 34% | kinase still bound, per cent of control [2]: 100% | kinase still bound, per cent of control [3]: 100% | kinase still bound, per cent of control (PLK2 (human)): 83% | kinase still bound, per cent of control (PRKD3 (human)): 100% | kinase still bound, per cent of control (PTK2B (human)): 83% | kinase still bound, per cent of control (RIPK1 (human)): 53% | kinase still bound, per cent of control (RPS6KA3 KD1 (human)): 56% | kinase still bound, per cent of control (RPS6KA4 KD1 (human)): 85% | kinase still bound, per cent of control (RPS6KA6 KD2 (human)): 98% | kinase still bound, per cent of control (SBK1 (human)): 92% | kinase still bound, per cent of control (STK17B (human)): 68% | kinase still bound, per cent of control (STK35 (human)): 100% | kinase still bound, per cent of control (STK38 (human)): 78% | kinase still bound, per cent of control (TLK2 (human)): 75% | kinase still bound, per cent of control [4]: 24%

CCN(CCO)CCCOc1ccc2c(Nc3cc(CC(=O)Nc4cccc(F)c4)[nH]n3)ncnc2c1
kinase still bound, per cent of control (ALK (human)): 98% | kinase still bound, per cent of control (CDC42BPB (human)): 100% | kinase still bound, per cent of control (CDK4 CCND1 (human)): 92% | kinase still bound, per cent of control (CHEK2 (human)): 100% | kinase still bound, per cent of control (CLK1 (human)): 69% | kinase still bound, per cent of control (CRK2 (P.falciparum)): 100% | kinase still bound, per cent of control (DCLK3 (human)): 86% | kinase still bound, per cent of control (EPHA3 (human)): 62% | kinase still bound, per cent of control (ERBB3 (human)): 35% | kinase still bound, per cent of control (ERBB4 (human)): 4% | kinase still bound, per cent of control (ERN1 (human)): 67% | kinase still bound, per cent of control (FGFR4 (human)): 100% | kinase still bound, per cent of control (FLT3 (human)): 0.4% | kinase still bound, per cent of control (GRK4 (human)): 100% | kinase still bound, per cent of control [1]: 100% | kinase still bound, per cent of control (LYN (human)): 18% | kinase still bound, per cent of control (MAP3K10 (human)): 92% | kinase still bound, per cent of control (MAP4K3 (human)): 51% | kinase still bound, per cent of control (MAPK1 (human)): 100% | kinase still bound, per cent of control (MAPK6 (human)): 100% | kinase still bound, per cent of control (MELK (human)): 47% | kinase still bound, per cent of control (MLTK (human)): 63% | kinase still bound, per cent of control (MYLK (human)): 80% | kinase still bound, per cent of control (PAK3 (human)): 57% | kinase still bound, per cent of control [2]: 100% | kinase still bound, per cent of control [3]: 73% | kinase still bound, per cent of control (PLK2 (human)): 93% | kinase still bound, per cent of control (PRKD3 (human)): 63% | kinase still bound, per cent of control (PTK2B (human)): 100% | kinase still bound, per cent of control (RIPK1 (human)): 100% | kinase still bound, per cent of control (RPS6KA3 KD1 (human)): 80% | kinase still bound, per cent of control (RPS6KA4 KD1 (human)): 73% | kinase still bound, per cent of control (RPS6KA6 KD2 (human)): 64% | kinase still bound, per cent of control (SBK1 (human)): 100% | kinase still bound, per cent of control (STK17B (human)): 93% | kinase still bound, per cent of control (STK35 (human)): 85% | kinase still bound, per cent of control (STK38 (human)): 56% | kinase still bound, per cent of control (TLK2 (human)): 100% | kinase still bound, per cent of control [4]: 85%

CCc1nc(-c2cccc(C)c2)c(-c2ccnc(NC(=O)c3ccccc3)c2)s1
kinase still bound, per cent of control (BMPR2 (human)): 90% | kinase still bound, per cent of control (CDC42BPB (human)): 63% | kinase still bound, per cent of control (CDK4 CCND1 (human)): 84% | kinase still bound, per cent of control (CHEK2 (human)): 80% | kinase still bound, per cent of control (CLK1 (human)): 92% | kinase still bound, per cent of control (CRK2 (P.falciparum)): 100% | kinase still bound, per cent of control (DCLK3 (human)): 90% | kinase still bound, per cent of control (EPHA3 (human)): 69% | kinase still bound, per cent of control (ERBB3 (human)): 49% | kinase still bound, per cent of control (ERBB4 (human)): 2.8% | kinase still bound, per cent of control (ERN1 (human)): 100% | kinase still bound, per cent of control (FGFR4 (human)): 100% | kinase still bound, per cent of control (FLT3 (human)): 17% | kinase still bound, per cent of control (GRK4 (human)): 100% | kinase still bound, per cent of control [1]: 70% | kinase still bound, per cent of control (LYN (human)): 54% | kinase still bound, per cent of control (MAP3K10 (human)): 100% | kinase still bound, per cent of control (MAP4K3 (human)): 80% | kinase still bound, per cent of control (MAPK1 (human)): 96% | kinase still bound, per cent of control (MAPK6 (human)): 85% | kinase still bound, per cent of control (MLTK (human)): 9.4% | kinase still bound, per cent of control (MYLK (human)): 84% | kinase still bound, per cent of control (PAK3 (human)): 82% | kinase still bound, per cent of control [2]: 100% | kinase still bound, per cent of control [3]: 100% | kinase still bound, per cent of control (PLK2 (human)): 100% | kinase still bound, per cent of control (PRKD3 (human)): 26% | kinase still bound, per cent of control (RIPK1 (human)): 95% | kinase still bound, per cent of control (RPS6KA3 KD1 (human)): 93% | kinase still bound, per cent of control (RPS6KA4 KD1 (human)): 100% | kinase still bound, per cent of control (RPS6KA6 KD2 (human)): 4.3% | kinase still bound, per cent of control (SBK1 (human)): 100% | kinase still bound, per cent of control (STK17B (human)): 91% | kinase still bound, per cent of control (STK35 (human)): 76% | kinase still bound, per cent of control (STK38 (human)): 100% | kinase still bound, per cent of control (TLK2 (human)): 87% | kinase still bound, per cent of control [4]: 100%

O=c1[nH]c2ccccc2n1C1CCN(Cc2ccc(-c3nc4cc5[nH]cnc5cc4nc3-c3ccccc3)cc2)CC1
kinase still bound, per cent of control (ALK (human)): 37% | kinase still bound, per cent of control (BMPR2 (human)): 100% | kinase still bound, per cent of control (CDC42BPB (human)): 83% | kinase still bound, per cent of control (CDK4 CCND1 (human)): 100% | kinase still bound, per cent of control (CHEK2 (human)): 100% | kinase still bound, per cent of control (CLK1 (human)): 100% | kinase still bound, per cent of control (CRK2 (P.falciparum)): 100% | kinase still bound, per cent of control (DCLK3 (human)): 91% | kinase still bound, per cent of control (EPHA3 (human)): 82% | kinase still bound, per cent of control (ERBB3 (human)): 100% | kinase still bound, per cent of control (ERBB4 (human)): 66% | kinase still bound, per cent of control (ERN1 (human)): 66% | kinase still bound, per cent of control (FGFR4 (human)): 100% | kinase still bound, per cent of control (GRK4 (human)): 100% | kinase still bound, per cent of control [1]: 79% | kinase still bound, per cent of control (LYN (human)): 72% | kinase still bound, per cent of control (MAP3K10 (human)): 84% | kinase still bound, per cent of control (MAP4K3 (human)): 100% | kinase still bound, per cent of control (MAPK1 (human)): 100% | kinase still bound, per cent of control (MAPK6 (human)): 100% | kinase still bound, per cent of control (MELK (human)): 77% | kinase still bound, per cent of control (MLTK (human)): 92% | kinase still bound, per cent of control (MYLK (human)): 57% | kinase still bound, per cent of control (PAK3 (human)): 72% | kinase still bound, per cent of control [2]: 58% | kinase still bound, per cent of control [3]: 69% | kinase still bound, per cent of control (PLK2 (human)): 88% | kinase still bound, per cent of control (PRKD3 (human)): 100% | kinase still bound, per cent of control (PTK2B (human)): 91% | kinase still bound, per cent of control (RIPK1 (human)): 100% | kinase still bound, per cent of control (RPS6KA3 KD1 (human)): 67% | kinase still bound, per cent of control (RPS6KA4 KD1 (human)): 100% | kinase still bound, per cent of control (RPS6KA6 KD2 (human)): 100% | kinase still bound, per cent of control (SBK1 (human)): 92% | kinase still bound, per cent of control (STK17B (human)): 89% | kinase still bound, per cent of control (STK35 (human)): 100% | kinase still bound, per cent of control (STK38 (human)): 62% | kinase still bound, per cent of control (TLK2 (human)): 100% | kinase still bound, per cent of control [4]: 66%
